The molecules below were run on EE transcriptome (assay: Genome-wide microarray transcript profiling of esophageal biopsies, EE patients vs normal individuals (EE transcriptome)). Conditions: transcript level in esophageal biopsies of EE patients (n=76) compared to normal individuals (n=13); Affymetrix Human Genome U133 plus 2; p<0.01.
Procedure: Esophageal tissue obtained from patients previously diagnosed with EE was analyzed. Diagnosis was based on analysis of excised tissue from endoscopic biopsy. Tissues from patients with EE, as well as patients not having EE (controls) were subjected to genome-wide microarray transcript profiling (Affymetrix GeneChip). All work was performed at the Core facility at Children's Hospital Medical Center (Cincinnati Ohio).
Briefly, RNA quality was first assessed using the Agilent bioanaiyzer (Agilent Technologies, Palo Alto Calif.). Only mRNA having a ratio of 28S/18S between 1.3 and 2 were subsequently used. RNA was converted to cDNA with Superscript choice for cDNA synthesis (Invitrogen, Carlsbad Calif.) and subsequently converted to biotinylated cRNA with Enzo High Yield RNA Transcript labeling kit (Enzo Diagnostics, Farmingdale N.Y.). After hybridization to the GeneChip (Affymetrix, Santa Clara Calif.), the chips were automatically washed and stained with streptavidin-phycoerythrin using a fluidics system. The chips were scanned with a Hewlett Packard GeneArray Scanner. Over 30,000 unique genes were screened.
Levels of gene transcripts were determined from data image files, using algorithms in the Microarray Analysis Suite software (Affymetrix). Levels from chip to chip were compared by global scaling. Each gene was typically represented by a probe set of 16 to 20 probe pairs. Each probe pair consisted of a perfect match oligonucleotide and a mismatch oligonucleotide that contained a one base mismatch at a central position. Two measures of gene expression were used, absolute call and average difference. Absolute call is a qualitative measure in which each gene is assigned a call of present, marginal or absent, based on the hybridization of the RNA to the probe set. Average difference is a quantitative measure of the level of gene expression, calculated by taking the difference between […] of every probe pair and averaging the differences over the entire probe set. Data were normalized and an EE transcriptome gene list was created with results having p<0.01 (Welch t-test with or without false rate discovery) and ≥1.5-fold change.
For evaluation of EE using clinical and/or physical assessment, biopsy tissues (obtained from the distal esophagus during routine endoscopy) were submerged in formalin for routine pathological analysis with hematoxylin and eosin staining. Diagnosis was established based on the maximum eosinophil count per high power field (hpf) and basal layer expansion according to method known in the art (e.g., established criteria in Rothenberg et al., Pathogenesis and clinical features of eosinophilic esophagitis. J Allergy Clin Immunol 108 (2001) 891; Attwood et al., Esophageal eosinophilia with dysphagia. A distinct clinicopathologic syndrome. Dig Dis Sci 38 (1993)109; Fox et al., Eosinophilic esophagitis: its not just kid's stuff. Gastrointest Endosc 56 (2002) 26, each of which is expressly incorporated by reference herein in its entirety. Normal individuals (NL), n=13, served as a control and were defined as having 0 eosinophils/hpf and no basal layer expansion. Individuals with EE (n=76) were defined as having >24 eosinophils/hpf and extensive basal layer hyperplasia (expansion to about >⅓ of epithelium).
The data were analyzed by cluster analysis and ordered (standard correlation (A) and distance (B)) using Genespring software. […] Each column represented a separate individual and each line a gene. RNA from each patient was subjected to chip analysis using Affymetrix Human Genome U133 GeneChip plus 2.

Molecule | Fold Change
ACSL5 | 2.745
ADAM28 | 2.613
SAMSN1 | 7.119
SCIN | 3.17
SCUBE1 | 2.689
SCUBE2 | 5.502
SDPR | 2.293
SE57-1 | 4.055
SEC6L1 | 8.878
SECTM1 | 3.282
SEPX1 | 2.611
SERPINB4 | 4.328
SFRP1 | 4.098
SGK | 3.139
SH2D1B | 3.098
SH3RF2 | 3.122
SIDT1 | 4.822
SIGLEC6 | 3.199
SLC15A1 | 2.792
SEQ_ID_#72 (nucleic acid, listed as Homo sapiens) DNA: AGCTATTCATTCATTTAATGAATATTTTTAATATCGATGTACATGCCAGATAATGAAGAGGAGGGGTGTTACAGAAGTATACAACAAATTGTATCATTCAGCAATCCTTTATCCTAGTGGGGAAGATGACTATACAGATAATTACAACTTAAGGCCATTTTTTGGATAAGAAACATAAAAGTGGTACAAACAAAAGTTCAAGGAGGCAAAGACCACTTCTTATTCTGGTTATATGGATAGCCTTCATGGAGAAGGCTTCATGACAGTTGGGTTGGGTCTTGAAGATGTCTACAGGTAGAGCCTCAGAAAAAGGAATATGAAACATAGGGAACAGTAGGAGGAGGGCAGCTTTAGTGACTGGCTCGGTTATACTAGAGCATTGGGATTGTAGAGGAGAATCATGATTGATTAAGGCTATATAGGGCAGTTAGGGCCAGATACTGGGGGAATTTGAATATCAGACTGTTATTTGATGAACAGTGGGAGCAGCTGAAGGTTTTTTTTTTTTTTTTAAAAAAAACAACCTTATTAAGGTAGTG | 4.374
SEQ_ID_#58 (nucleic acid, listed as Homo sapiens) DNA: ATGAAGGCCAACTACAGCGCAGAGGAGCGCTTTCTCCTGCTGGGTTTCTCCGACTGGCCTTCCCTGCAGCCGGTCCTCTTCGCCCTTGTCCTCCTGTGCTACCTCCTGACCTTGACGGGCAACTCGGCGCTGGTGCTGCTGGCGGTGCGCGACCCGCGCCTGCACACGCCCATGTACTACTTCCTCTGCCACCTGGCCTTGGTAGACGCGGGCTTCACTACTAGCGTGGTGCCGCCGCTGCTGGCCAACCTGCGCGGACCAGCGCTCTGGCTGCCGCGCAGCCACTGCACGGCCCAGCTGTGCGCATCGCTGGCTCTGGGTTCCGCCGAATGCGTCCTCCTGGCGGTGATGGCTCTGGACCGCGCGGCCGCAGTGTGCCGCCCGCTGCGCTATGCGGGGCTCGTCTCCCCGCGCCTATGTCGCACGCTGGCCAGCGCCTCCTGGCTAAGTGGCCTCACCAACTCGGTTGCGCAAACCGCGCTCCTGGCTGAGCGGCCGCTGTGCGCGCCCCGCCTGCTGGACCACTTCATCTGTGAGCTGCCGGCGTTGCTCAAGCTGGCCTGCGGAGGCGACGGAGACACTACCGAGAACCAGATGTTCGCCGCCCGCGTGGTCATCCTGCTGCTGCCGTTTGCCGTCATCCTGGCCTCCTACGGTGCCGTGGCCCGAGCTGTCTGTTGCATGCGGTTCAGCGGAGGCCGGAGGAGGGCGGTGGGCACGTGTGGGTCCCACCTGACAGCCGTCTGCCTGTTCTACGGCTCGGCCATCTACACCTACCTGCAGCCCGCGCAGCGCTACAACCAGGCACGGGGCAAGTTCGTATCGCTCTTCTACACCGTGGTCACACCTGCTCTCAACCCGCTCATCTACACCCTCAGGAATAAGAAAGTGAAGGGGGCAGCGAGGAGGCTGCTGCGGAGTCTGGGGAGAGGCCAGGCTGGGCAGTGA | 4.822
SEQ_ID_#65 (nucleic acid, listed as Homo sapiens) DNA: ATGAAGGCCAACTACAGCGCAGAGGAGCGCTTTCTCCTGCTGGGTTTCTCCGACTGGCCTTCCCTGCAGCCGGTCCTCTTCGCCCTTGTCCTCCTGTGCTACCTCCTGACCTTGACGGGCAACTCGGCGCTGGTGCTGCTGGCGGTGCGCGACCCGCGCCTGCACACGCCCATGTACTACTTCCTCTGCCACCTGGCCTTGGTAGACGCGGGCTTCACTACTAGCGTGGTGCCGCCGCTGCTGGCCAACCTGCGCGGACCAGCGCTCTGGCTGCCGCGCAGCCACTGCACGGCCCAGCTGTGCGCATCGCTGGCTCTGGGTTCCGCCGAATGCGTCCTCCTGGCGGTGATGGCTCTGGACCGCGCGGCCGCAGTGTGCCGCCCGCTGCGCTATGCGGGGCTCGTCTCCCCGCGCCTATGTCGCACGCTGGCCAGCGCCTCCTGGCTAAGTGGCCTCACCAACTCGGTTGCGCAAACCGCGCTCCTGGCTGAGCGGCCGCTGTGCGCGCCCCGCCTGCTGGACCACTTCATCTGTGAGCTGCCGGCGTTGCTCAAGCTGGCCTGCGGAGGCGACGGAGACACTACCGAGAACCAGATGTTCGCCGCCCGCGTGGTCATCCTGCTGCTGCCGTTTGCCGTCATCCTGGCCTCCTACGGTGCCGTGGCCCGAGCTGTCTGTTGCATGCGGTTCAGCGGAGGCCGGAGGAGGGCGGTGGGCACGTGTGGGTCCCACCTGACAGCCGTCTGCCTGTTCTACGGCTCGGCCATCTACACCTACCTGCAGCCCGCGCAGCGCTACAACCAGGCACGGGGCAAGTTCGTATCGCTCTTCTACACCGTGGTCACACCTGCTCTCAACCCGCTCATCTACACCCTCAGGAATAAGAAAGTGAAGGGGGCAGCGAGGAGGCTGCTGCGGAGTCTGGGGAGAGGCCAGGCTGGGCAGTGA | 4.547

Same assay, conditions: transcript level in esophageal biopsies of EE patients compared to normal individuals (NL); Affymetrix Human Genome U133 plus 2; p<0.01; >1 up-regulated, <1 down-regulated

Molecule | Fold Change
13CDNA73 | 0.632
AADAT | 0.608
ABCC1 | 0.622
ABHD6 | 0.609
ACADL | 0.588
ACOX2 | 0.592
ADAMTS17 | 0.631
ADAR | 1.509
SAMD9 | 0.634
SC5DL | 0.6
SCEL | 0.631
SCYL2 | 1.507
SEC24C | 0.647
SF3B3 | 0.655
SFRS5 | 0.666
SGPL1 | 0.63
SH3BP5 | 0.622
SEQ_ID_#787 (nucleic acid, listed as Homo sapiens) DNA: TTTGGTACAGAATGAAACCGTTCTCTTTGAAGAACTGCATGTTTCCCCCAGTCATTTTTGTCCTGGGGGAGTCAAGTGTTTTTACGGACCCTTGAAGCTTGAGGACACTCTGGCATCACCCATTGTTGGGGTGACTTTCTGGTGATTATCAGTGAGCAAACTTCAAGGCCAGCTCCGATTAGGAAAATCTGCCAAGTGTGAGTTTCCTTGGAGCTAGGACTGGGCAGAGACCCCTGGTCCTTGGTCCGTAGGGAAGCTGGGGGATTTGGGGGGTAAGTAATGAGATCATGTCTGCAGAGGCCCCCAGCCTCTTGGAAGAAGATTCCGCTGTAATTTCTTGGAAAAAGCCAACTCCTTCCAGCCCTTTCTGCTCACACCATCTCAGTTTTCCTGGCTGG | 1.528
SEQ_ID_#783 (nucleic acid, listed as Homo sapiens) DNA: TATCACGCACAAATTGCAATTACTTCACACTCACGATAACCCATTAATCTGTGAAGGATTAATCTGTTCATGAAGGCAGGGCCCTCATGATGGAATCACATCTTAAAGCCCCTACGTCTGAGTACTGTTACATTGGGGATTTAGTTTTAATATGATTTTCAGAGCAGAAAAACATTCAAACCATAGCAATATGTATTGAATATCTAGATCATTTCCAAATAAGATATTAATATGATACTGAAACATTTATTGCTGAACATAAATTTAGAACTTACTTTGCCTACCTATTACAGAAGAACAAAAGATATTTGGGCCTATTAAACCTTTCCTCTGCCATTTCCTGTCCTGTGTCATAGGACTAGGAATCGTGTTTCTAGAAGGTATGAAATCGTGTGCTTGCAAACTTGGAAGAAAACAGTTCATGACTGCATACCTTCTAGTTCTCTAGTGTTCACTGGAAATTAAAGACACTAAAAGTTAACAATTCTTATTAATTAATCATATTAATGTAATTGGAATTTCTAGAAATATTAGGGGAAGCAACTTTATACGCAAAGCATAACAGAAAAATAAGGTGTATTTTTTCTTTGAAACCTATGAAATATACTGGCCAGGCACGGTGGCTCATGCTTGTAATCCCAGCACTTTGGGAAGCTGAAGCGGTGGATCACCTGAGCTCAGGAGTCCGAGACCAGCTGGCCACATGTTGAACCATGTCTCTACTAAAATACAAAATTAGCAGTCATGTGCGGTGCTGTACCCCAGTACTCGGAGCTGGGGGGAATCGTGACCGGGTGGGTGCTGACCAAACCTGGCCCAGCGGGAAAGAGACTTTAAAACAATGGACCAAACTGCACAAGCTCTGCCACACTTGTCGAACCCGTGGACGCACAAGAAAAGGGCATCTGGACCTGGAATAACGAAACGACACATCT | 1.53

— patent US10155985B2, “Evaluation of eosinophilic esophagitis” (CHILDREN'S HOSPITAL MEDICAL CENTER, priority 2004, dated 2018)
